Experimental data as given in ChEMBL document CHEMBL1147998, “Synthesis of pH-sensitive amphotericin B-poly(ethylene glycol) conjugates and study of their controlled release in vitro” (Bioorg Med Chem, 2007).

Test: Toxicity in iv dosed NMRI mouse after 14 days
Format: organism-based
Conditions: in vivo

C[C@@H]1[C@H](O)[C@@H](C)/C=C/C=C/C=C/C=C/C=C/C=C/C=C/[C@H](O[C@@H]2O[C@H](C)[C@@H](O)[C@H](N)[C@@H]2O)C[C@@H]2O[C@](O)(C[C@@H](O)C[C@@H](O)[C@H](O)CC[C@@H](O)C[C@@H](O)CC(=O)O[C@H]1C)C[C@H](O)[C@H]2C(=O)O [AMPHOTERICIN B]
LD50 at 336 h: 3.7 mg/kg
